Read-outs that look alike come from different tables or passages of the source.
Target: Benzodiazepine receptors (BDZ-Rs)
Assay: Inhibition of 3H-flunitrazepam (3H-FNZ) binding to washed rat cerebral cortical membranes
Description: Adult male Wistar rats weighing 250g were used for biochemical experiments.
Membrane preparations were carried out according to Medina et al. (1990). Briefly, brains were rapidly dissected out on ice and the different structures were homogenized in 10 volumes of 0.32 M sucrose and centrifuged at 900 x g for 10 min. The resulting supernatant was centrifuged at 100,000 x g for 30 min and the pellet washed twice in 25mM Tris HCl buffer pH 7.4 at 100,000 x g for 30 min,and stored at-20°C until used.
Binding affinities to BDZ-Rs were determined by the ability of the compounds to inhibit Hoffman-La Roche ^3H-flunitrazepam (^3H-FNZ) binding to extensively washed rat cerebal cortical membranes following the method as described by Levi de Stein, M. et al., Mol. Brain Res (1989),5, pp 9-15.
In brief, for each assay, triplicate samples of the membranes, containing 0.2 to 0.4 mg protein were suspended in a final volume of 1 ml of 0.25 mM Tris-HCl buffer, pH 7.3.
The incubation was carried out at 4°C for 60 min with 0.5 nM ^3H-FNZ. To study the binding saturation, a range of 0.3 to 10 nM ^3H-FNZ was used. Non-specific binding was determined in parallel incubations in the presence of 3µM FNZ, and represented 5-15% of total. The assays were terminated by filtration under vacuum through Whatman GF/A glass-fiber filters, and three washes with 3mL each of incubation medium. Filters were dried and counted after the addition of 5 mL of 2,5-diphenyloxazole/xylene as scintillation fluid.
The competition curves were analyzed using Graph-Pad Prism software.
Figures 1-5 show representative displacement curves of [^3H] flunitrazepam (0.5 nM) binding by different flavones to washed crude synaptosomal membranes from rat cerebral cortex.

[1] = Rat Cerebral Cortex membranes, 0.5 nM 3H-FNZ, means of 3-5 independent determinations, read-out: Ki^b
[2] = mean ± SEM from displacement curves of [3H] flunitrazepam binding to rat synaptosomal membranes, read-out: Ki
[3] = single representative displacement curve (Figures 1-5), [3H] flunitrazepam 0.5 nM, washed crude synaptosomal membranes from rat cerebral cortex, read-out: Ki

Compound | Ki [1] [nM] | Ki [2] [nM] | Ki [3] [nM]
O=c1cc(-c2ccccc2)oc2ccc([N+](=O)[O-])cc12 [Compound A1, 6-nitroflavone] | 275 | 275 ± 41.1 | 315
O=c1cc(-c2cccc(Cl)c2)oc2ccccc12 [Compound A2, 3'-chloroflavone] | 614 | 614 ± 32.7 | 665
O=c1cc(-c2cccc(Br)c2)oc2ccccc12 [Compound A3, 3'-bromoflavone] | 413 | 414 ± 46 | 427
O=c1cc(-c2cccc(Br)c2)oc2ccc(Br)cc12 [Compound A4, 6,3'-dibromoflavone] | 19 | 18.6 ± 2.18 | 22.7
O=c1cc(-c2cccc(Br)c2)oc2ccc([N+](=O)[O-])cc12 [Compound A5, 6-nitro-3'-bromoflavone] | 25 | 25.2 ± 2.46 | 21.8
O=c1cc(-c2ccccc2)oc2ccccc12 [Flavone 6, Flavone, reference compound] | 1000 | – | –

Source: patent EP0973516B1, “USE OF HALO AND/OR NITRO-SUBSTITUTED FLAVONOIDS AS ANXYOLITICS” (University of Strathclyde, priority 1997, dated 1998)
